Results reported in patent US11976058B2, “Aromatic derivatives, preparation methods, and medical uses thereof” (Bioardis LLC, priority 2019, dated 2024).
Where two headings read alike, the source gives them in different places.

Columns and labels:
human FGFR4 = target: T1, human FGFR4 (Homo sapiens, UniProt P22455); experiment: FGFR4 enzymatic assay (HTRF KinEASE-TK); type: biochemical; conditions: wild-type human FGFR4 cytoplasmic domain (460-802), GST-tag; 60 min preincubation at 25° C.; ATP 200 μM; read-out: Potency (IC50), FGFR4 enzymatic assay
T1 construct: human FGFR4 cytoplasmic domain (460-802); GST (N); purchased Carna Biosciences 08-136
T1 sequence (P22455 460-802): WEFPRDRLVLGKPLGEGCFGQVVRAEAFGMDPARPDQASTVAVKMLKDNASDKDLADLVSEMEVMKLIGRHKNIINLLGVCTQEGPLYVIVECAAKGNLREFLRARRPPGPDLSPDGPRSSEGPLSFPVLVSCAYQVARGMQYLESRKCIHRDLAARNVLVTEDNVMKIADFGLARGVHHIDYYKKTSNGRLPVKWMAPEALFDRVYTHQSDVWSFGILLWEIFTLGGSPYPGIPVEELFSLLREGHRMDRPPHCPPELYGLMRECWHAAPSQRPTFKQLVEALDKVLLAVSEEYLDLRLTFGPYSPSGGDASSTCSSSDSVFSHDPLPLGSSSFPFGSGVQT
Protocol: The ability of compounds to inhibit human FGFR4 tyrosine kinase activities was determined using a commercially available HTRF® KinEASE™-TK kit (CISBIO, Cat #62TK0PEC) according to the manufacturer's protocol. Wild-type human FGFR4 cytoplasmic domain (460-802) with N-terminal GST-tag was purchased from Carna Biosciences (Carna, Cat #08-136) and used in the kinase enzymatic assay. This assay, run in a 384-well plate format, is a generic method for measuring tyrosine kinase activities using one substrate and a universal detection system. It involves two steps: (1) Enzymatic step: the biotin labeled TK Substrate is incubated with the kinase and then ATP is added to start the enzymatic reaction; during this step, FGFR4 will phosphorylate the TK Substrate-biotin. (2) Detection step: The TK-Antibody labeled with Eu^3+-Cryptate can recognize the phosphorylated TK Substrate-biotin. When the streptavidin-XL665 conjugate binds the biotin, a FRET signal will be detected. Briefly, human FGFR4 (0.25 μg/ml) in the enzymatic buffer solutions (250 mM HEPES, pH7.0, 0.1% NaN3, 0.05% BSA, 0.5 mM Orthovanadate) were mixed with various concentrations of the test compound (dissolved in 100% DMSO). These solutions were incubated for 60 min at 25° C., and subsequently a mixture of substrate peptide and ATP was added with the final peptide and ATP concentrations at 0.3 μM and 200 μM respectively. The final reaction mixture of enzyme-substrate-ATP-compound was incubated for 40 min at 37° C. Meanwhile the detection mixture containing the TK-antibody and Streptavidin-XL665 diluted in the detection buffer (50 mM HEPES, pH7.0, with additives) was prepared, and added to the reaction mixture at final concentrations of 25 nM and 18.5 nM respectively. After incubation for 60 min at 25° C., the FRET signal of the final solution was measured at 665 nm and 612 nm emissions on a TECAN Spark 10M instrument (TECAN). The percent (%) inhibition at each concentration of a compound was calculated relative to the FRET signal in the Max and Min control wells contained within each assay plate. The Max control wells contained enzyme and substrate as 0% inhibition, and the Min control wells only contained substrate without enzyme as 100% inhibition. The concentrations and percent inhibition values for a test compound are plotted and the concentration of the compound required to achieve 50% inhibition (IC50) was determined with a four-parameter logistic dose response equation. Dose-response curves were generated using Prism (GraphPad Software, La Jolla, CA, US) to calculate IC50 values for each compound tested.

Hep3B cells = experiment: Cell-based FGFR4 proliferation assay (CellTiter-Glo); conditions: incubated with test compound for 3 days, CellTiter-Glo luminescence, read-out: Potency (IC50), Hep3B cell proliferation
Protocol: Hepatocellular carcinoma cell line Hep3B (ATCC, Cat #HB-8064) were cultured at 37° C., 5% CO2 in ATCC-formulated Eagle's Minimum Essential Medium supplemented with 10% fetal bovine serum; 1% Penicillin-Streptomycin.
(§1) Cell line: Hepatocellular carcinoma cell line Hep3B (ATCC, Cat #HB-8064).
In this assay, Hep3B cells are seeded in 384-well microplates, and after exposure to experimental compounds for […], CellTiter-Glo® Luminescent Cell Viability Assay kit (Promega, Cat #G7572) are used to determine the number of viable cells in the culture based on quantitation of the ATP present, which signals the presence of metabolically active cells. Luminescent signal is proportional to the amount of ATP present. The amount of ATP is directly proportional to the number of cells present in the culture, allowing drug-induced effects on cell proliferation to be measured.
Hep3B cells were plated at a density of 4×10^4/ml cells in a 384-well black/clear microplate with 20 μL per well of MEM Medium (Gibco Cat. #11095-080) supplemented with 10% fetal bovine serum; 1% Penicillin-Streptomycin, and cultured overnight at 37° C., 5% CO2. Various concentrations of the test compound (dissolved in 100% DMSO) were added to the wells of the cell plate. The cells were incubated with the test compound for 3 days at 37° C., 5% CO2. 5 μL of CellTiter-Glo® Reagent was added to each well of the cell plate. The cell plate was incubated for 5 min at 25° C. on a plate shaker (IKA MTS 2/4) at 300 rpm. Luminescence signals were read on a TECAN Spark 10M instrument (TECAN). […] The concentrations and percent inhibition values for a test compound were plotted and the concentration of the compound required to achieve 50% inhibition (IC50) is determined with a four-parameter logistic dose response equation. Dose-response curves were generated using Prism (GraphPad Software, La Jolla, CA, US) to calculate IC50 values for each compound tested.

[1] = test system: MAPK phosphorylation in Hep3B cells stimulated with FGF19; experiment: FGFR4 pMAPK AlphaLISA SureFire Ultra assay; type: cell-based; conditions: serum-starved, compound 1 hour, FGF19 100 ng/ml for 4 hours, read-out: Potency (IC50), FGFR4 pMAPK AlphaLISA
Excerpt: as §1
In normal liver, circulating FGF19 drives liver cell proliferation and regulates bile acid production. However aberrant expression of FGF19 in the liver drives HCC tumorigenesis, upregulates MAPK phosphorylation in FGF19-amplified malignant liver cells. AlphaScreen SureFire technology allows the detection of phosphorylated proteins in cellular lysates in a highly sensitive, quantitative assay. In these assays, sandwich antibody complexes, which are only formed in the presence of analyte, are captured by AlphaScreen Donor and Acceptor beads, bringing them into close proximity. The excitation of the Donor bead provokes the release of singlet oxygen molecules that triggers a cascade of energy transfer in the Acceptor beads, resulting in the emission of light at 520-620 nm.
Hep3B cells were plated at a density of 1×10^4/ml cells in a 96-well plate (Corning #3599), with 100 uL per well of MEM Medium (Gibco Cat #11095-080) supplemented with 10% fetal bovine serum; 1% Penicillin-Streptomycin, and cultured overnight at 37° C., 5% CO2. Starve Hep3B cells in serum-free medium (SFM) supplemented with 0.2% BSA and incubate the cells again overnight at 37° C., 5% CO2. Various concentrations of the test compound (prepared in 2x SFM) were added to the wells of the cell plate and then incubated for 1 hour at 37° C., 5% CO2. 50 μL of FGF19 in SFM was added to each well of the cell plate with a final FGF19 concentration of 100 ng/ml, and cells treated with FGF19 were stimulated for 4 hours at 37° C., 5% CO2. 5 μL of freshly prepared Donor Mix and Acceptor Mix were sequentially added to the cell plate, each followed with 1 hour of incubation at 25° C., 5% CO2. Read the cell plate on an Alpha Technology-compatible plate reader at 570 nm AlphaScreen, using standard AlphaLISA settings. The percent (%) inhibition=((ZPE−Alpha-Signal)/(ZPE−HPE))*100% where the meanings of HPE and ZPE are as provided below.
HPE: Hundred Percent Effect, negative control well without FGF19 nor compound. Final concentration of DMSO is 0.1%.
ZPE: Zero Percent Effect, positive control well without compound. Final concentration of FGF19 is 100 ng/mL, DMSO is 0.1%.
The concentrations and percent inhibition values for a test compound were plotted and the concentration of the compound required to achieve 50% inhibition (IC50) was determined with a four-parameter logistic dose response equation. Dose-response curves were generated using Prism (GraphPad Software, La Jolla, CA, US) to calculate IC50 values for each compound tested.

IC50 (human FGFR4) | IC50 (Hep3B cells; Homo sapiens, Hep3B, 72 h) | IC50 ([1]; Homo sapiens, Hep3B) | IC50 (Hep3B cells) | IC50 [1] | Compound
< 10 nM | 10 to 100 nM | < 10 nM | – | – | C=CC(=O)Nc1cnn(CC)c1-c1n[nH]c2c1CC[C@H](c1c(F)c(OC)cc(OC)c1F)C2 [Compound S14-P2, (S)—N-(5-(6-(2,6-difluoro-3,5-dimethoxyphenyl)-4,5,6,7-tetrahydro-1H-indazol-3-yl)-1-ethyl-1H-pyrazol-4-yl) acrylamide]
< 10 nM | 10 to 100 nM | < 10 nM | – | – | [2H]C([2H])([2H])Oc1cc(OC([2H])([2H])[2H])c(F)c(C2CCc3c(-c4c(NC(=O)C=C)cnn4C)n[nH]c3C2)c1F (single isomer, unassigned) [Compound S8-P1, N-(5-(6-(2,6-difluoro-3,5-bis(methoxy-d3)phenyl)-4,5,6,7-tetrahydro-1H-indazol-3-yl)-1-methyl-1H-pyrazol-4-yl) acrylamide]
10 to 100 nM | – | – | 10 to 100 nM | < 10 nM | C=CC(=O)Nc1cnn(C(C)C)c1-c1n[nH]c2c1CCC(c1c(F)c(OC)cc(OC)c1F)C2 (single isomer, unassigned) [Compound S17-P2, N-(5-(6-(2,6-difluoro-3,5-dimethoxyphenyl)-4,5,6,7-tetrahydro-1H-indazol-3-yl)-1-isopropyl-1H-pyrazol-4-yl)acrylamide]
< 10 nM | 10 to 100 nM | < 10 nM | – | – | [2H]C([2H])([2H])n1ncc(NC(=O)C=C)c1-c1n[nH]c2c1CCC(c1c(F)c(OC)cc(OC)c1F)C2 (single isomer, unassigned) [Compound S16-P1, N-(5-(6-(2,6-difluoro-3,5-dimethoxyphenyl)-4,5,6,7-tetrahydro-1H-indazol-3-yl)-1-(methyl-d3)-1H-pyrazol-4-yl)acrylamide]
< 10 nM | < 10 nM | < 10 nM | – | – | C=CC(=O)Nc1c[nH]nc1-c1n[nH]c2c1CCC(c1c(F)c(OC)cc(OC)c1F)C2 (single isomer, unassigned) [Compound S15-P1, N-(3-(6-(2,6-difluoro-3,5-dimethoxyphenyl)-4,5,6,7-tetrahydro-1H-indazol-3-yl)-1H-pyrazol-4-yl)acrylamide]
10 to 100 nM | – | – | 10 to 100 nM | < 10 nM | C=CC(=O)Nc1c[nH]nc1-c1n[nH]c2c1CCC(c1cc(OC)cc(OC)c1F)C2 (single isomer, unassigned) [Compound S15-P4, N-(3-(6-(2-fluoro-3,5-dimethoxyphenyl)-4,5,6,7-tetrahydro-1H-indazol-3-yl)-1H-pyrazol-4-yl)acrylamide]
10 to 100 nM | > 100 nM | 10 to 100 nM | – | – | [2H]C([2H])([2H])n1ncc(NC(=O)C=C)c1-c1n[nH]c2c1CCC(c1cc(OC)cc(OC)c1F)C2 (single isomer, unassigned) [Compound S16-P3, N-(5-(6-(2-fluoro-3,5-dimethoxyphenyl)-4,5,6,7-tetrahydro-1H-indazol-3-yl)-1-(methyl-d3)-1H-pyrazol-4-yl)acrylamide]

The remaining lines, values behind:

Compound | IC50 (human FGFR4) | IC50 (Hep3B cells; Homo sapiens, Hep3B, 72 h) | IC50 ([1]; Homo sapiens, Hep3B) | IC50 (Hep3B cells) | IC50 [1]
C=CC(=O)Nc1cnn(C)c1-c1n[nH]c2c1CCC(c1c(F)c(OC)cc(OC)c1F)=C2 [Compound S5-P1, N-(5-(6-(2,6-difluoro-3,5-dimethoxyphenyl)-4,5-dihydro-1H-indazol-3-yl)-1-methyl-1H-pyrazol-4-yl) acrylamide] | 10 to 100 nM | 10 to 100 nM | < 10 nM | – | –
C=CC(=O)Nc1cnn(C)c1-c1n[nH]c2c1CCC(c1cc(OC)cc(OC)c1F)=C2 [Compound S5-P2, N-(5-(6-(2-fluoro-3,5-dimethoxyphenyl)-4,5-dihydro-1H-indazol-3-yl)-1-methyl-1H-pyrazol-4-yl)acrylamide] | 10 to 100 nM | > 100 nM | 10 to 100 nM | – | –
C=CC(=O)Nc1cnn(C)c1-c1n[nH]c2c1CCC[C@@H](c1c(F)c(OC)cc(OC)c1F)C2 (single isomer, unassigned) [Compound S4-P1] | < 10 nM | < 10 nM | < 10 nM | – | –
C=CC(=O)Nc1cnn(C)c1-c1n[nH]c2c1CCC(c1c(F)c(OC)cc(OC)c1F)C2 (single isomer, unassigned) [Compound S1-P1, N-(5-(6-(2,6-difluoro-3,5-dimethoxyphenyl)-4,5,6,7-tetrahydro-1H-indazol-3-yl)-1-methyl-1H-pyrazol-4-yl)acrylamide] | < 10 nM | 10 to 100 nM | < 10 nM | – | –
C=CC(=O)Nc1cnn(C)c1-c1n[nH]c2c1COC(c1c(F)c(OC)cc(OC)c1F)C2 (single isomer, unassigned) [Compound S6-P2, N-(5-(6-(2,6-difluoro-3,5-dimethoxyphenyl)-1,4,6,7-tetrahydropyrano[4,3-c]pyrazol-3-yl)-1-methyl-1H-pyrazol-4-yl) acrylamide] | 10 to 100 nM | – | 10 to 100 nM | > 100 nM | –
